Laboratory results as given in patent US20250163038A1, “CBL-B MODULATORS AND USES THEREOF” (Nimbus Clio, Inc., priority 2021, published 2025).

What was measured:
[1] = test system: Jurkat (clone E6-1) cells with NFAT luciferase reporter; assay: Jurkat reporter assay (NFAT Luciferase); format: cell-based; conditions: Homo sapiens; Jurkat NFAT luciferase reporter cells, anti-CD3 stimulation, 6 hr; read-out: Jurkat NFAT EC50
[2] = target: Recombinant human Cbl-b (aa 36-427) (Homo sapiens, UniProt Q13191); assay: Cbl-b Biochemical Assay (TR-FRET); conditions: read-out: TR-FRET hCbl-b IC50
[3] = target: T1, Recombinant human c-Cbl (aa 47-435) (Homo sapiens, UniProt P22681); assay: c-Cbl Biochemical Assay (TR-FRET); conditions: hc-Cbl Biochemical Assay (TR-FRET); read-out: TR-FRET hcCbl IC50
T1 sequence (P22681 47-435): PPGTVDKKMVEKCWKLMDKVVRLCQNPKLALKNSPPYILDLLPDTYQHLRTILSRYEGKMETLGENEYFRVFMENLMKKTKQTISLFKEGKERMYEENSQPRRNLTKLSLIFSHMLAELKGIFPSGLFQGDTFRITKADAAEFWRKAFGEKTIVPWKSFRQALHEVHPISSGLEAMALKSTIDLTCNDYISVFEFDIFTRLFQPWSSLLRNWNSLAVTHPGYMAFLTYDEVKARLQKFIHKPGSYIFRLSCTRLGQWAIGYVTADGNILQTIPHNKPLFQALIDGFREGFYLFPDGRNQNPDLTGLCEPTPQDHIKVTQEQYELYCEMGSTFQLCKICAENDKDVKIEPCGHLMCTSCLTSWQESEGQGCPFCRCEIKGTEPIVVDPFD

Sequence of Recombinant human Cbl-b (aa 36-427) (Q13191 36-427): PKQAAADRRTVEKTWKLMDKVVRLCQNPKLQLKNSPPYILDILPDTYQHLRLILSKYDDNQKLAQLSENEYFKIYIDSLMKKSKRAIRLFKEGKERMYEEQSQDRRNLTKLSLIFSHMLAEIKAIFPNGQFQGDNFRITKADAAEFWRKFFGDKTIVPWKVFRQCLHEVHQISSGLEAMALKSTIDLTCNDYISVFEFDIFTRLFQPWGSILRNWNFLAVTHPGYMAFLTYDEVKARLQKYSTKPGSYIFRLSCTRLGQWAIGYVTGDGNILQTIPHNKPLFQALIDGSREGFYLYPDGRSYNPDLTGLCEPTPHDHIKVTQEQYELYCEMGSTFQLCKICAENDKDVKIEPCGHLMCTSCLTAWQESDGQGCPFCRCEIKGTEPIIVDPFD

| SMILES | EC50 [1] [µM] | IC50 [2] [µM] | IC50 [3] [µM] |
| --- | --- | --- | --- |
| Cn1cnnc1-c1cc(F)ccc1-c1cccc(-c2nc3cc(CNCC4(C#N)CCOCC4)cc(C(F)(F)F)c3[nH]2)c1 [CT-2, 4-((((2-(4′-Fluoro-2′-(4-methyl-4H-1,2,4-triazol-3-yl)-[1,1′-biphenyl]-3-yl)-7-(trifluoromethyl)-1H-benzo[d]imidazol-5-yl)methyl)amino)methyl)tetrahydro-2H-pyran-4-carbonitrile] | 0.2 to 1 | < 0.2 | 0.2 to 1 |
| Cn1cnnc1-c1cc(F)ccc1-c1cccc(-c2nc3cc(CNC[C@@H]4CCC(=O)N4)cc(C(F)(F)F)c3o2)c1 [CU-2, (S)-5-((((2-(4′-Fluoro-2′-(4-methyl-4H-1,2,4-triazol-3-yl)-[1,1′-biphenyl]-3-yl)-7-(trifluoromethyl)benzo[d]oxazol-5-yl)methyl)amino)methyl)pyrrolidin-2-one] | 0.2 to 1 | < 0.2 | < 0.2 |
| Cn1cnnc1-c1cc(F)ccc1-c1cccc(-c2nc3cc(CN[C@@H]4CCC[C@@H]4F)cc(C(F)(F)F)c3o2)c1 [CW-5, (1R,2S)-2-Fluoro-N-((2-(4′-fluoro-2′-(4-methyl-4H-1,2,4-triazol-3-yl)-[1,1′-biphenyl]-3-yl)-7-(trifluoromethyl)benzo[d]oxazol-5-yl)methyl)cyclopentan-1-amine] | < 0.2 | < 0.2 | < 0.2 |
| Cn1cnnc1-c1cc(F)ccc1-c1cccc(-c2nc3cc(CNCC4(C#N)CCCC4)cc(C(F)(F)F)c3o2)c1 [CX-1, 1-((((2-(4′-Fluoro-2′-(4-methyl-4H-1,2,4-triazol-3-yl)-[1,1′-biphenyl]-3-yl)-7-(trifluoromethyl)benzo[d]oxazol-5-yl)methyl)amino)methyl)cyclopentane-1-carbonitrile] | 0.2 to 1 | < 0.2 | < 0.2 |
| Cn1cnnc1-c1cc(F)ccc1-c1cccc(-c2nc3cc(CN4C(=O)O[C@H]5CCC[C@H]54)cc(C(F)(F)F)c3o2)c1 [CY-1, (3aR,6aS)-3-((2-(4′-Fluoro-2′-(4-methyl-4H-1,2,4-triazol-3-yl)-[1,1′-biphenyl]-3-yl)-7-(trifluoromethyl)benzo[d]oxazol-5-yl)methyl)hexahydro-2H-cyclopenta[d]oxazol-2-one] | 1 to 10 | < 0.2 | 0.2 to 1 |
| Cn1cnnc1-c1cc(F)ccc1-c1cccc(-c2nc3cc(CNCC(O)(C(F)(F)F)C(F)(F)F)cc(C(F)(F)F)c3o2)c1 [CZ-2, 1,1,1,3,3,3-Hexafluoro-2-((((2-(4′-fluoro-2′-(4-methyl-4H-1,2,4-triazol-3-yl)-[1,1′-biphenyl]-3-yl)-7-(trifluoromethyl)benzo[d]oxazol-5-yl)methyl)amino)methyl)propan-2-ol] | 0.2 to 1 | < 0.2 | < 0.2 |
| Cn1cnnc1-c1cc(F)ccc1-c1cccc(-c2nc3cc(CNCC(C)(C)F)cc(C(F)(F)F)c3o2)c1 [DA-1, 2-Fluoro-N-((2-(4′-fluoro-2′-(4-methyl-4H-1,2,4-triazol-3-yl)-[1,1′-biphenyl]-3-yl)-7-(trifluoromethyl)benzo[d]oxazol-5-yl)methyl)-2-methylpropan-1-amine] | < 0.2 | < 0.2 | < 0.2 |
| Cn1cnnc1-c1cc(F)ccc1-c1cccc(-c2nc3ccc(CN[C@@H]4CCC[C@@H]4O)cc3o2)c1 [DD-2, (1S,2R)-2-(((2-(4′-Fluoro-2′-(4-methyl-4H-1,2,4-triazol-3-yl)-[1,1′-biphenyl]-3-yl)benzo[d]oxazol-6-yl)methyl)amino)cyclopentan-1-ol] | 1 to 10 | < 0.2 | 0.2 to 1 |
| COC1(CNCc2cc(C(F)(F)F)c3oc(-c4cccc(-c5ccc(F)cc5-c5nncn5C)c4)nc3c2)CCC1 [DE-2, 1-(2-(4′-Fluoro-2′-(4-methyl-4H-1,2,4-triazol-3-yl)-[1,1′-biphenyl]-3-yl)-7-(trifluoromethyl)benzo[d]oxazol-5-yl)-N-((1-methoxycyclobutyl)methyl)methanamine] | 0.2 to 1 | < 0.2 | < 0.2 |
| Cn1cnnc1-c1cc(F)ccc1-c1cccc(-c2nc3cc(CN[C@@H]4CCCC[C@@H]4O)cc(C(F)(F)F)c3o2)c1 [DF-2, (1S,2R)-2-(((2-(4′-Fluoro-2′-(4-methyl-4H-1,2,4-triazol-3-yl)-[1,1′-biphenyl]-3-yl)-7-(trifluoromethyl)benzo[d]oxazol-5-yl)methyl)amino)cyclohexan-1-ol] | < 0.2 | < 0.2 | < 0.2 |
| CC[C@H](O)CNCc1cc(C(F)(F)F)c2oc(-c3cccc(-c4ccc(F)cc4-c4nncn4C)c3)nc2c1 [DG-2, (S)-1-(((2-(4′-Fluoro-2′-(4-methyl-4H-1,2,4-triazol-3-yl)-[1,1′-biphenyl]-3-yl)-7-(trifluoromethyl)benzo[d]oxazol-5-yl)methyl)amino)butan-2-ol] | < 0.2 | < 0.2 | < 0.2 |
| Cn1cnnc1-c1cc(F)ccc1-c1cccc(-c2nc3cc(CN[C@@H]4COC[C@@H]4O)cc(C(F)(F)F)c3o2)c1 [DH-2, (3R,4R)-4-(((2-(4′-Fluoro-2′-(4-methyl-4H-1,2,4-triazol-3-yl)-[1,1′-biphenyl]-3-yl)-7-(trifluoromethyl)benzo[d]oxazol-5-yl)methyl)amino)tetrahydrofuran-3-ol] | < 0.2 | < 0.2 | < 0.2 |
| Cn1cnnc1-c1cc(F)ccc1-c1cccc(-c2nc3cc(C(=O)NO)cc(C(F)(F)F)c3o2)c1 [DI-1, 2-(4′-Fluoro-2′-(4-methyl-4H-1,2,4-triazol-3-yl)-[1,1′-biphenyl]-3-yl)-N-hydroxy-7-(trifluoromethyl)benzo[d]oxazole-5-carboxamide] | 10 to 50 | < 0.2 | 1 to 10 |
| CON(C)C(=O)c1cc(C(F)(F)F)c2oc(-c3cccc(-c4ccc(F)cc4-c4nncn4C)c3)nc2c1 [DJ-2, 2-(4′-Fluoro-2′-(4-methyl-4H-1,2,4-triazol-3-yl)-[1,1′-biphenyl]-3-yl)-N-methoxy-N-methyl-7-(trifluoromethyl)benzo[d]oxazole-5-carboxamide] | 1 to 10 | < 0.2 | 0.2 to 1 |
| Cn1cnnc1-c1cc(F)ccc1-c1cccc(-c2nc3cc(CNC[C@H](O)C(F)(F)F)cc(C(F)(F)F)c3o2)c1 [DM-2, (S)-1,1,1-Trifluoro-3-(((2-(4′-fluoro-2′-(4-methyl-4H-1,2,4-triazol-3-yl)-[1,1′-biphenyl]-3-yl)-7-(trifluoromethyl)benzo[d]oxazol-5-yl)methyl)amino)propan-2-ol] | < 0.2 | < 0.2 | < 0.2 |
| Cn1cnnc1-c1cc(F)ccc1-c1cccc(-c2nc3cc(CNCC(C)(C)C#N)cc(C(F)(F)F)c3o2)c1 [DN-2, 3-(((2-(4′-fluoro-2′-(4-methyl-4H-1,2,4-triazol-3-yl)-[1,1′-biphenyl]-3-yl)-7-(trifluoromethyl)benzo[d]oxazol-5-yl)methyl)amino)-2,2-dimethylpropanenitrile] | 0.2 to 1 | < 0.2 | < 0.2 |
| Cn1cnnc1-c1cc(F)ccc1-c1cccc(-c2nc3cc(CN[C@@H]4CCC[C@@]4(C)O)cc(C(F)(F)F)c3o2)c1 [DP-5, (1R,2R)-2-(((2-(4′-Fluoro-2′-(4-methyl-4H-1,2,4-triazol-3-yl)-[1,1′-biphenyl]-3-yl)-7-(trifluoromethyl)benzo[d]oxazol-5-yl)methyl)amino)-1-methylcyclopentan-1-ol] | 0.2 to 1 | < 0.2 | < 0.2 |
